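Each compound was tested at five concentrations against cells in 96-well plates for 48 hours. Definition used: TGI = concentration required for complete inhibition of growth.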
What was measured:
Assay in all cases: NCI-60 cell line screen, 48 h
786-0 renal = system: 786-0 renal
A498 renal = system: A498 renal
A549 NSCLC = system: A549 NSCLC
ACHN renal = system: ACHN renal
CAKI-1 renal = system: CAKI-1 renal
CCRF-CEM leukemia = system: CCRF-CEM leukemia
COLO 205 colon = system: COLO 205 colon
DMS 114 small cell lung = system: DMS 114 small cell lung
DMS 273 small cell lung = system: DMS 273 small cell lung
EKVX NSCLC = system: EKVX NSCLC
HCC-2998 colon = system: HCC-2998 colon
HCT-116 colon = system: HCT-116 colon
HCT-15 colon = system: HCT-15 colon
HL-60(TB) leukemia = system: HL-60(TB) leukemia
HOP-18 NSCLC = system: HOP-18 NSCLC
HOP-62 NSCLC = system: HOP-62 NSCLC
HT29 colon = system: HT29 colon
IGROV1 ovarian = system: IGROV1 ovarian
K-562 leukemia = system: K-562 leukemia
KM12 colon = system: KM12 colon
KM20L2 colon = system: KM20L2 colon
LXFL 529 NSCLC = system: LXFL 529 NSCLC
M14 melanoma = system: M14 melanoma
M19-MEL melanoma = system: M19-MEL melanoma
MALME-3M melanoma = system: MALME-3M melanoma
MOLT-4 leukemia = system: MOLT-4 leukemia
NCI-H226 lung = system: NCI-H226 lung
NCI-H23 lung = system: NCI-H23 lung
NCI-H460 lung = system: NCI-H460 lung
NCI-H522 lung = system: NCI-H522 lung
OVCAR-3 ovarian = system: OVCAR-3 ovarian
OVCAR-4 ovarian = system: OVCAR-4 ovarian
OVCAR-5 ovarian = system: OVCAR-5 ovarian
OVCAR-8 ovarian = system: OVCAR-8 ovarian
RPMI-8226 leukemia = system: RPMI-8226 leukemia
RXF 393 renal = system: RXF 393 renal
RXF-631 renal = system: RXF-631 renal
SF-268 CNS = system: SF-268 CNS
SF-295 CNS = system: SF-295 CNS
SF-539 CNS = system: SF-539 CNS
SK-MEL-2 melanoma = system: SK-MEL-2 melanoma
SK-MEL-5 melanoma = system: SK-MEL-5 melanoma
SK-OV-3 ovarian = system: SK-OV-3 ovarian
SN12C renal = system: SN12C renal
SNB-19 CNS = system: SNB-19 CNS
SNB-75 CNS = system: SNB-75 CNS
SNB-78 CNS = system: SNB-78 CNS
SW-620 colon = system: SW-620 colon
TK-10 renal = system: TK-10 renal
U251 CNS = system: U251 CNS
UACC-257 melanoma = system: UACC-257 melanoma
UACC-62 melanoma = system: UACC-62 melanoma
UO-31 renal = system: UO-31 renal
XF 498 CNS = system: XF 498 CNS
DLD-1 colon = system: DLD-1 colon
HOP-92 NSCLC = system: HOP-92 NSCLC
LOX IMVI melanoma = system: LOX IMVI melanoma
SK-MEL-28 melanoma = system: SK-MEL-28 melanoma
SR leukemia = system: SR leukemia

Structure (SMILES): C[S+](C)CCOC(=O)C(=[N+]=[N-])c1ccc([N+](=O)[O-])cc1
- TGI (786-0 renal): > 100 µM
- TGI (A498 renal): > 100 µM
- TGI (A549 NSCLC): > 100 µM
- TGI (ACHN renal): > 100 µM
- TGI (CAKI-1 renal): > 100 µM
- TGI (CCRF-CEM leukemia): > 100 µM
- TGI (COLO 205 colon): > 100 µM
- TGI (DMS 114 small cell lung): > 100 µM
- TGI (DMS 273 small cell lung): > 100 µM
- TGI (EKVX NSCLC): > 100 µM
- TGI (HCC-2998 colon): > 100 µM
- TGI (HCT-116 colon): > 100 µM
- TGI (HCT-15 colon): > 100 µM
- TGI (HL-60(TB) leukemia): > 100 µM
- TGI (HOP-18 NSCLC): > 100 µM
- TGI (HOP-62 NSCLC): > 100 µM
- TGI (HT29 colon): > 100 µM
- TGI (IGROV1 ovarian): > 100 µM
- TGI (K-562 leukemia): > 100 µM
- TGI (KM12 colon): > 100 µM
- TGI (KM20L2 colon): > 100 µM
- TGI (LXFL 529 NSCLC): > 100 µM
- TGI (M14 melanoma): > 100 µM
- TGI (M19-MEL melanoma): > 100 µM
- TGI (MALME-3M melanoma): > 100 µM
- TGI (MOLT-4 leukemia): > 100 µM
- TGI (NCI-H226 lung): > 100 µM
- TGI (NCI-H23 lung): > 100 µM
- TGI (NCI-H460 lung): > 100 µM
- TGI (NCI-H522 lung): > 100 µM
- TGI (OVCAR-3 ovarian): > 100 µM
- TGI (OVCAR-4 ovarian): > 100 µM
- TGI (OVCAR-5 ovarian): > 100 µM
- TGI (OVCAR-8 ovarian): > 100 µM
- TGI (RPMI-8226 leukemia): > 100 µM
- TGI (RXF 393 renal): > 100 µM
- TGI (RXF-631 renal): > 100 µM
- TGI (SF-268 CNS): > 100 µM
- TGI (SF-295 CNS): > 100 µM
- TGI (SF-539 CNS): > 100 µM
- TGI (SK-MEL-2 melanoma): > 100 µM
- TGI (SK-MEL-5 melanoma): > 100 µM
- TGI (SK-OV-3 ovarian): > 100 µM
- TGI (SN12C renal): > 100 µM
- TGI (SNB-19 CNS): > 100 µM
- TGI (SNB-75 CNS): > 100 µM
- TGI (SNB-78 CNS): > 100 µM
- TGI (SW-620 colon): > 100 µM
- TGI (TK-10 renal): > 100 µM
- TGI (U251 CNS): > 100 µM
- TGI (UACC-257 melanoma): > 100 µM
- TGI (UACC-62 melanoma): > 100 µM
- TGI (UO-31 renal): > 100 µM
- TGI (XF 498 CNS): > 100 µM

Structure (SMILES): Oc1cc(O)c2c(-c3c(O)c(-c4ccc(O)c(O)c4)[o+]c4cc(O)cc(O)c34)c(O)c(-c3ccc(O)c(O)c3)[o+]c2c1
- TGI (786-0 renal): > 100 µM
- TGI (A498 renal): > 100 µM
- TGI (A549 NSCLC): > 100 µM
- TGI (ACHN renal): 66.6 µM
- TGI (CAKI-1 renal): 95.6 µM
- TGI (COLO 205 colon): > 100 µM
- TGI (DLD-1 colon): > 100 µM
- TGI (DMS 114 small cell lung): 92.8 µM
- TGI (DMS 273 small cell lung): > 100 µM
- TGI (EKVX NSCLC): 86.8 µM
- TGI (HCC-2998 colon): > 100 µM
- TGI (HCT-116 colon): > 100 µM
- TGI (HCT-15 colon): > 100 µM
- TGI (HOP-18 NSCLC): 36.4 µM
- TGI (HOP-62 NSCLC): 97.8 µM
- TGI (HOP-92 NSCLC): > 100 µM
- TGI (HT29 colon): > 100 µM
- TGI (IGROV1 ovarian): > 100 µM
- TGI (KM12 colon): > 100 µM
- TGI (KM20L2 colon): > 100 µM
- TGI (LOX IMVI melanoma): > 100 µM
- TGI (LXFL 529 NSCLC): > 100 µM
- TGI (M14 melanoma): > 100 µM
- TGI (M19-MEL melanoma): > 100 µM
- TGI (MALME-3M melanoma): 84.6 µM
- TGI (MOLT-4 leukemia): > 100 µM
- TGI (NCI-H226 lung): 64 µM
- TGI (NCI-H23 lung): > 100 µM
- TGI (NCI-H460 lung): 90.6 µM
- TGI (OVCAR-3 ovarian): 46.2 µM
- TGI (OVCAR-4 ovarian): > 100 µM
- TGI (OVCAR-5 ovarian): > 100 µM
- TGI (OVCAR-8 ovarian): > 100 µM
- TGI (RPMI-8226 leukemia): > 100 µM
- TGI (RXF 393 renal): 81.1 µM
- TGI (RXF-631 renal): > 100 µM
- TGI (SF-268 CNS): > 100 µM
- TGI (SF-295 CNS): > 100 µM
- TGI (SF-539 CNS): 50.3 µM
- TGI (SK-MEL-28 melanoma): > 100 µM
- TGI (SK-MEL-5 melanoma): > 100 µM
- TGI (SK-OV-3 ovarian): > 100 µM
- TGI (SN12C renal): > 100 µM
- TGI (SNB-19 CNS): > 100 µM
- TGI (SNB-75 CNS): 61.8 µM
- TGI (SNB-78 CNS): > 100 µM
- TGI (SR leukemia): 74.8 µM
- TGI (SW-620 colon): > 100 µM
- TGI (TK-10 renal): > 100 µM
- TGI (U251 CNS): > 100 µM
- TGI (UACC-257 melanoma): > 100 µM
- TGI (UACC-62 melanoma): 46.7 µM
- TGI (UO-31 renal): 78.3 µM
- TGI (XF 498 CNS): 87.6 µM

Structure (SMILES): CCCCCC/C=C1\CCC(CN2CCCC2)C1=O (stereo unspecified)
- TGI (786-0 renal): 6.43 µM
- TGI (A498 renal): 38.4 µM
- TGI (A549 NSCLC): 37 µM
- TGI (ACHN renal): 32.3 µM
- TGI (CAKI-1 renal): > 53.5 µM
- TGI (CCRF-CEM leukemia): 20.9 µM
- TGI (COLO 205 colon): 36.3 µM
- TGI (DLD-1 colon): 18 µM
- TGI (DMS 114 small cell lung): 29.4 µM
- TGI (DMS 273 small cell lung): 25.5 µM
- TGI (EKVX NSCLC): 34.2 µM
- TGI (HCC-2998 colon): 31.6 µM
- TGI (HCT-116 colon): 25 µM
- TGI (HCT-15 colon): 22.8 µM
- TGI (HOP-18 NSCLC): 32.9 µM
- TGI (HOP-62 NSCLC): 34.2 µM
- TGI (HOP-92 NSCLC): 32.4 µM
- TGI (HT29 colon): 34.2 µM
- TGI (IGROV1 ovarian): 39.6 µM
- TGI (K-562 leukemia): 12.6 µM
- TGI (KM12 colon): 13.3 µM
- TGI (KM20L2 colon): 41.3 µM
- TGI (LOX IMVI melanoma): 22.4 µM
- TGI (LXFL 529 NSCLC): 11.4 µM
- TGI (M14 melanoma): 33.6 µM
- TGI (M19-MEL melanoma): 25.6 µM
- TGI (MALME-3M melanoma): 34.6 µM
- TGI (MOLT-4 leukemia): > 87 µM
- TGI (NCI-H226 lung): 34.3 µM
- TGI (NCI-H23 lung): 33.8 µM
- TGI (NCI-H460 lung): > 62.1 µM
- TGI (NCI-H522 lung): 3.29 µM
- TGI (OVCAR-3 ovarian): 27.3 µM
- TGI (OVCAR-4 ovarian): 49.1 µM
- TGI (OVCAR-5 ovarian): 32.3 µM
- TGI (OVCAR-8 ovarian): 39.2 µM
- TGI (RPMI-8226 leukemia): 5.56 µM
- TGI (RXF 393 renal): 33.5 µM
- TGI (RXF-631 renal): 42.2 µM
- TGI (SF-268 CNS): 38.5 µM
- TGI (SF-295 CNS): 34.1 µM
- TGI (SF-539 CNS): 34.1 µM
- TGI (SK-MEL-2 melanoma): 30.5 µM
- TGI (SK-MEL-28 melanoma): 33.8 µM
- TGI (SK-MEL-5 melanoma): 32.8 µM
- TGI (SK-OV-3 ovarian): 33 µM
- TGI (SN12C renal): 27 µM
- TGI (SNB-19 CNS): > 52.9 µM
- TGI (SNB-75 CNS): 38.3 µM
- TGI (SNB-78 CNS): 60.2 µM
- TGI (SR leukemia): > 22.4 µM
- TGI (SW-620 colon): > 59.4 µM
- TGI (TK-10 renal): 17.4 µM
- TGI (U251 CNS): 30 µM
- TGI (UACC-257 melanoma): 32.7 µM
- TGI (UACC-62 melanoma): 35.9 µM
- TGI (UO-31 renal): 33 µM
- TGI (XF 498 CNS): 31.4 µM
